ChEMBL document CHEMBL1201862, “PubChem BioAssay data set” (2004)
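1) Cells in 96-well plates. 2) Compound, 48 h, 5 concentrations. 3) Linear interpolation between surrounding doses. 4) Unreached endpoint = highest concentration. Here, GI50 denotes the concentration required for 50% inhibition of growth.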 Calls of active or inactive are those of the source. Rule as the data show it: active = GI50 up to about 1.1 µM and inactive = higher.

Key:
Test in all cases: NCI tumour cell line growth inhibition, 48 h
SK-MEL-28 = test system: SK-MEL-28
U-251 = test system: U-251
HL-60 = test system: HL-60
NCI-H226 = test system: NCI-H226
MDA-MB-435 = test system: MDA-MB-435
OVCAR-4 = test system: OVCAR-4
MOLT-4 = test system: MOLT-4
T47D = test system: T47D
MDA-MB-231 = test system: MDA-MB-231
ACHN = test system: ACHN
MCF7 = test system: MCF7
OVCAR-5 = test system: OVCAR-5
SK-MEL-2 = test system: SK-MEL-2
UACC-257 = test system: UACC-257
SK-OV-3 = test system: SK-OV-3
CCRF-CEM = test system: CCRF-CEM
IGROV-1 = test system: IGROV-1
HCC 2998 = test system: HCC 2998
Malme-3M = test system: Malme-3M
HOP-92 = test system: HOP-92

Structure (SMILES)	GI50 (SK-MEL-28)	GI50 (U-251)	GI50 (HL-60)	GI50 (NCI-H226)	GI50 (MDA-MB-435)	GI50 (OVCAR-4)	GI50 (MOLT-4)	GI50 (T47D)	GI50 (MDA-MB-231)	GI50 (ACHN)	GI50 (MCF7)	GI50 (OVCAR-5)	GI50 (SK-MEL-2)	GI50 (UACC-257)	GI50 (SK-OV-3)	GI50 (CCRF-CEM)	GI50 (IGROV-1)	GI50 (HCC 2998)	GI50 (Malme-3M)	GI50 (HOP-92)
O=C(NC/C=C/Br)NC1CCNc2ccccc21 (configuration not stated)	33.7 µM (inactive)	73.8 µM (inactive)	32.1 µM (inactive)	38.8 µM (inactive)	31.6 µM (inactive)	72.1 µM (inactive)	56.8 µM (inactive)	36.5 µM (inactive)	41 µM (inactive)	58.3 µM (inactive)	19.3 µM (inactive)	55.3 µM (inactive)	30.1 µM (inactive)	21.8 µM (inactive)	> 100 µM (inactive)	36.4 µM (inactive)	76.6 µM (inactive)	27.9 µM (inactive)	31.6 µM (inactive)	–
OC(C1CCCCCCCCCC1)C(O)C1CCCCCCCCCC1 (configuration not stated)	> 100 µM (inactive)	> 100 µM (inactive)	> 100 µM (inactive)	> 100 µM (inactive)	> 100 µM (inactive)	> 100 µM (inactive)	37.1 µM (inactive)	> 100 µM (inactive)	> 100 µM (inactive)	> 100 µM (inactive)	> 100 µM (inactive)	> 100 µM (inactive)	> 100 µM (inactive)	> 100 µM (inactive)	> 100 µM (inactive)	> 100 µM (inactive)	> 100 µM (inactive)	> 100 µM (inactive)	> 100 µM (inactive)	–
O=[N+]([O-])c1ccc(/N=N/c2c(O)ccc3cc(S(=O)(=O)O)cc(S(=O)(=O)O)c23)cc1	> 100 µM (inactive)	> 100 µM (inactive)	–	> 100 µM (inactive)	> 100 µM (inactive)	> 100 µM (inactive)	> 100 µM (inactive)	> 100 µM (inactive)	> 100 µM (inactive)	> 100 µM (inactive)	–	> 100 µM (inactive)	> 100 µM (inactive)	> 100 µM (inactive)	> 100 µM (inactive)	> 100 µM (inactive)	> 100 µM (inactive)	–	> 100 µM (inactive)	> 100 µM (inactive)
NCCCNc1ccc2c3c(nn2CCNCCO)-c2c(O)ccc(O)c2C(=O)c13	–	–	–	0.406 µM (active)	9.71 µM (inactive)	3.93 µM (inactive)	0.21 µM (active)	2.18 µM (inactive)	3.84 µM (inactive)	0.989 µM (active)	0.418 µM (active)	4.28 µM (inactive)	–	5.81 µM (inactive)	1.28 µM (inactive)	–	2.46 µM (inactive)	–	1.51 µM (inactive)	–
Cc1ccc(S(=O)(=O)n2c3ccc(Br)cc3c3nc4ccccc4nc32)cc1	> 100 µM (inactive)	> 100 µM (inactive)	–	0.183 µM (active)	> 100 µM (inactive)	72.8 µM (inactive)	> 100 µM (inactive)	> 100 µM (inactive)	> 100 µM (inactive)	> 100 µM (inactive)	–	> 100 µM (inactive)	> 100 µM (inactive)	> 100 µM (inactive)	–	> 100 µM (inactive)	0.689 µM (active)	> 100 µM (inactive)	–	> 100 µM (inactive)
Cc1cc2nc3ccccc3n2c2ccccc12	> 10 µM (inactive)	> 10 µM (inactive)	> 10 µM (inactive)	6.17 µM (inactive)	> 10 µM (inactive)	> 10 µM (inactive)	> 10 µM (inactive)	> 10 µM (inactive)	> 10 µM (inactive)	> 10 µM (inactive)	> 10 µM (inactive)	> 10 µM (inactive)	> 10 µM (inactive)	> 10 µM (inactive)	> 10 µM (inactive)	5.96 µM (inactive)	> 10 µM (inactive)	> 10 µM (inactive)	> 10 µM (inactive)	–
CC(NC(=O)Cc1ccc(OP(=O)(OCc2ccc([N+](=O)[O-])o2)N(C)CCCCCl)cc1)c1ccc(OCC2CCCCC2)c(C(N)=O)c1 (configuration not stated)	1.65 µM (inactive)	2.14 µM (inactive)	2.22 µM (inactive)	2.48 µM (inactive)	1.89 µM (inactive)	2.16 µM (inactive)	1.52 µM (inactive)	1.18 µM (inactive)	2.08 µM (inactive)	3.56 µM (inactive)	2.52 µM (inactive)	3.01 µM (inactive)	2.26 µM (inactive)	1.67 µM (inactive)	3.08 µM (inactive)	0.906 µM (active)	1.91 µM (inactive)	1.35 µM (inactive)	1.77 µM (inactive)	–
COC1OC2COC(C)(C)OC2C2OC(C)(C)OC12 (configuration not stated)	> 100 µM (inactive)	24.5 µM (inactive)	–	23.8 µM (inactive)	> 100 µM (inactive)	22.2 µM (inactive)	25.3 µM (inactive)	> 100 µM (inactive)	16 µM (inactive)	41.8 µM (inactive)	23.6 µM (inactive)	> 100 µM (inactive)	> 100 µM (inactive)	63.2 µM (inactive)	78.2 µM (inactive)	19 µM (inactive)	18.7 µM (inactive)	> 100 µM (inactive)	> 100 µM (inactive)	–
CCOC(=O)c1nc[nH]c1/N=N/N(C)N	> 100 µM (inactive)	65 µM (inactive)	29.2 µM (inactive)	> 100 µM (inactive)	> 100 µM (inactive)	> 100 µM (inactive)	44.2 µM (inactive)	20.8 µM (inactive)	> 100 µM (inactive)	> 100 µM (inactive)	98.4 µM (inactive)	> 100 µM (inactive)	> 100 µM (inactive)	> 100 µM (inactive)	> 100 µM (inactive)	–	> 100 µM (inactive)	> 100 µM (inactive)	> 100 µM (inactive)	–
[N-]=[N+]=Nc1c(Cl)c(=O)n(-c2ccccc2)c2ccccc12	17.6 µM (inactive)	> 10 µM (inactive)	40.3 µM (inactive)	–	19.1 µM (inactive)	17.4 µM (inactive)	8.43 µM (inactive)	11.8 µM (inactive)	–	21.5 µM (inactive)	21.8 µM (inactive)	24.3 µM (inactive)	20.7 µM (inactive)	24.2 µM (inactive)	37.2 µM (inactive)	11.9 µM (inactive)	15.6 µM (inactive)	21.7 µM (inactive)	22.2 µM (inactive)	19.3 µM (inactive)
Cc1cc(=O)oc2c(C)c3oc(CBr)c(Br)c3cc12	44.4 µM (inactive)	31.1 µM (inactive)	85.1 µM (inactive)	30 µM (inactive)	43.3 µM (inactive)	28.5 µM (inactive)	8.59 µM (inactive)	24.2 µM (inactive)	87.3 µM (inactive)	35.6 µM (inactive)	33.1 µM (inactive)	27.4 µM (inactive)	36.1 µM (inactive)	54.5 µM (inactive)	43.3 µM (inactive)	10.4 µM (inactive)	17.7 µM (inactive)	19.3 µM (inactive)	> 10 µM (inactive)	–
Oc1cc(CF)nc(S)n1	> 100 µM (inactive)	> 100 µM (inactive)	–	> 100 µM (inactive)	> 100 µM (inactive)	> 100 µM (inactive)	> 100 µM (inactive)	> 100 µM (inactive)	> 100 µM (inactive)	> 100 µM (inactive)	–	> 100 µM (inactive)	–	> 100 µM (inactive)	–	> 100 µM (inactive)	> 100 µM (inactive)	> 100 µM (inactive)	> 100 µM (inactive)	> 100 µM (inactive)
COc1ccc(CCN2CCN(CCCc3ccccc3)CC2)cc1	> 100 µM (inactive)	> 100 µM (inactive)	> 100 µM (inactive)	> 100 µM (inactive)	> 100 µM (inactive)	71.6 µM (inactive)	92 µM (inactive)	34 µM (inactive)	> 100 µM (inactive)	> 100 µM (inactive)	> 100 µM (inactive)	77.1 µM (inactive)	> 100 µM (inactive)	77.3 µM (inactive)	> 100 µM (inactive)	> 100 µM (inactive)	96.8 µM (inactive)	69.3 µM (inactive)	> 100 µM (inactive)	–
COC1=C(Br)[C@H](O)[C@@]2(C=C1Br)CC(C(=O)NCCCCCNC(=N)N)=NO2 [APLYSINAMISINE II]	> 10 µM (inactive)	> 10 µM (inactive)	> 10 µM (inactive)	> 10 µM (inactive)	> 10 µM (inactive)	> 10 µM (inactive)	> 10 µM (inactive)	> 10 µM (inactive)	> 10 µM (inactive)	> 10 µM (inactive)	> 10 µM (inactive)	> 10 µM (inactive)	> 10 µM (inactive)	> 10 µM (inactive)	> 10 µM (inactive)	> 10 µM (inactive)	> 10 µM (inactive)	> 10 µM (inactive)	> 10 µM (inactive)	–
Cc1cc(=O)[nH]c(-n2[nH]c(C)c(CCO)c2=O)n1	> 100 µM (inactive)	> 100 µM (inactive)	> 100 µM (inactive)	> 100 µM (inactive)	> 100 µM (inactive)	> 100 µM (inactive)	–	> 100 µM (inactive)	> 100 µM (inactive)	> 100 µM (inactive)	> 100 µM (inactive)	> 100 µM (inactive)	> 100 µM (inactive)	> 100 µM (inactive)	> 100 µM (inactive)	> 100 µM (inactive)	> 100 µM (inactive)	> 100 µM (inactive)	> 100 µM (inactive)	–
